Tested on: MOLT-4 cancer cell line
Experiment: Cell proliferation assay, MOLT-4 cancer cell line (ATPlite);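 note: luminescence read-out, percent growth versus compound-free DMSO wells as maximum growth, start-of-incubation signal separating growth from cell death, IC50 from logistic curve fit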
Assay type: cell-based
Conditions: Homo sapiens, MOLT-4; 72 hours incubation, ATPlite 1Step; read-out: IC50 MOLT-4 cell proliferation

Compound | IC50 [nM]
COCCn1nc(C)c(NC(=O)c2ccn3c2ccc2cnc(Nc4ccc(N5CCNCC5)cc4OC)nc23)c1C [Example 96, N-[1-(2-methoxyethyl)-3,5-dimethyl-pyrazol-4-yl]-2-(2-methoxy-4-piperazin-1-yl-anilino)pyrimido[4,5-e]indolizine-7-carboxamide] | < 50
CCc1n[nH]c(CC)c1NC(=O)c1ccn2c1ccc1cnc(Nc3ccc(N4CCNCC4)cc3OC)nc12 [Example 97, N-(3,5-diethyl-1H-pyrazol-4-yl)-2-(2-methoxy-4-piperazin-1-yl-anilino)pyrimido[4,5-e]indolizine-7-carboxamide] | < 50
COc1cc(N2CCNCC2)ccc1Nc1ncc2c(n1)-n1ccc(C(=O)Nc3c(C)nn(CC(C)(C)O)c3C)c1CC2 [Example 98, N-[1-(2-hydroxy-2-methyl-propyl)-3,5-dimethyl-pyrazol-4-yl]-2-(2-methoxy-4-piperazin-1-yl-anilino)-5,6-dihydropyrimido[4,5-e]indolizine-7-carboxamide] | 50 to 150
[2H]C([2H])([2H])Oc1cc(N2CCN(C)CC2)ccc1Nc1ncc2c(n1)-n1ccc(C(=O)Nc3c(CC)cccc3CC)c1CC2 [Example 99, N-(2,6-diethylphenyl)-2-[4-(4-methylpiperazin-1-yl)-2-(trideuteriomethoxy)anilino]-5,6-dihydropyrimido[4,5-e]indolizine-7-carboxamide] | < 50
[2H]C([2H])([2H])Oc1cc(N2CCN(C)CC2)ccc1Nc1ncc2c(n1)-n1ccc(C(=O)Nc3c(CC)nn(CCOC)c3CC)c1CC2 [Example 100, N-[3,5-diethyl-1-(2-methoxyethyl)pyrazol-4-yl]-2-[4-(4-methylpiperazin-1-yl)-2-(trideuteriomethoxy)anilino]-5,6-dihydropyrimido[4,5-e]indolizine-7-carboxamide] | < 50
CCc1cccc(CC)c1NC(=O)c1ccn2c1CCc1cnc(Nc3cc(Cl)c(N4CCN(C)CC4)cc3OC)nc1-2 [Example 102, 2-[5-Chloro-2-methoxy-4-(4-methylpiperazin-1-yl)anilino]-N-(2,6-diethylphenyl)-5,6-dihydropyrimido[4,5-e]indolizine-7-carboxamide] | 50 to 150
COc1cc(C(=O)NC2CCOCC2)ccc1Nc1ncc2c(n1)-n1ccc(C(=O)Nc3c(C)cccc3C)c1CC2 [Example 103, N-(2,6-dimethylphenyl)-2-[2-methoxy-4-(tetrahydropyran-4-ylcarbamoyl)anilino]-5,6-dihydropyrimido[4,5-e]indolizine-7-carboxamide] | < 50
COc1cc(C(=O)NC2CNC2)ccc1Nc1ncc2c(n1)-n1ccc(C(=O)Nc3c(C)cccc3C)c1CC2 [Example 104, 2-[4-(Azetidin-3-ylcarbamoyl)-2-methoxy-anilino]-N-(2,6-dimethylphenyl)-5,6-dihydropyrimido[4,5-e]indolizine-7-carboxamide] | 50 to 150
COCC(=O)N1CCN(c2ccc(Nc3ncc4c(n3)-n3ccc(C(=O)Nc5c(C)cccc5C)c3CC4)c(OC)c2)CC1 [Example 105, N-(2,6-dimethylphenyl)-2-[2-methoxy-4-[4-(2-methoxyacetyl)piperazin-1-yl]anilino]-5,6-dihydropyrimido[4,5-e]indolizine-7-carboxamide] | < 50
CCc1cccc(CC)c1NC(=O)c1ccn2c1CCc1cnc(Nc3cnc(N4CCN(C)CC4)nc3OC)nc1-2 [Example 107, N-(2,6-diethylphenyl)-2-[[4-methoxy-2-(4-methylpiperazin-1-yl)pyrimidin-5-yl]amino]-5,6-dihydropyrimido[4,5-e]indolizine-7-carboxamide] | < 50
CCc1nn(CCOC)c(CC)c1NC(=O)c1ccn2c1CCc1cnc(Nc3ccc(N4CCN(C)CC4)cc3OC)nc1-2 [Example 109, N-[3,5-diethyl-1-(2-methoxyethyl)pyrazol-4-yl]-2-[2-methoxy-4-(4-methylpiperazin-1-yl)anilino]-5,6-dihydropyrimido[4,5-e]indolizine-7-carboxamide] | < 50
COc1cc(N2CCN(C(=O)C3CC3)CC2)ccc1Nc1ncc2c(n1)-n1ccc(C(=O)Nc3c(C)cccc3C)c1CC2 [Example 112, 2-[4-[4-(Cyclopropanecarbonyl)piperazin-1-yl]-2-methoxy-anilino]-N-(2,6-dimethylphenyl)-5,6-dihydropyrimido[4,5-e]indolizine-7-carboxamide] | < 50
CCCCS(=O)(=O)N1CCN(c2ccc(Nc3ncc4c(n3)-n3ccc(C(=O)Nc5c(C)cccc5C)c3CC4)c(OC)c2)CC1 [Example 113, 2-[4-(4-Butylsulfonylpiperazin-1-yl)-2-methoxy-anilino]-N-(2,6-dimethylphenyl)-5,6-dihydropyrimido[4,5-e]indolizine-7-carboxamide] | < 50
CCNC(=O)N1CCN(c2ccc(Nc3ncc4c(n3)-n3ccc(C(=O)Nc5c(C)cccc5C)c3CC4)c(OC)c2)CC1 [Example 114, N-(2,6-dimethylphenyl)-2-[4-[4-(ethylcarbamoyl)piperazin-1-yl]-2-methoxy-anilino]-5,6-dihydropyrimido[4,5-e]indolizine-7-carboxamide] | < 50
CCc1cccc(CC)c1NC(=O)c1ccn2c1CCc1cnc(Nc3ccc(N4CCNC(C)C4)cc3OC)nc1-2 (stereo not shown) [Example 116, N-(2,6-diethylphenyl)-2-[2-methoxy-4-(3-methylpiperazin-1-yl)anilino]-5,6-dihydropyrimido[4,5-e]indolizine-7-carboxamide] | < 50
COc1cc(C(=O)N[C@@H]2CCNC[C@@H]2OC)ccc1Nc1ncc2c(n1)-n1ccc(C(=O)Nc3c(C)cccc3C)c1CC2 [Example 117, N-(2,6-dimethylphenyl)-2-[2-methoxy-4-[[(3S,4R)-3-methoxy-4-piperidyl]carbamoyl]anilino]-5,6-dihydropyrimido[4,5-e]indolizine-7-carboxamide] | < 50
COc1cc(C(=O)N[C@@H]2CCNC[C@@H]2F)ccc1Nc1ncc2c(n1)-n1ccc(C(=O)Nc3c(C)cccc3C)c1CC2 [Example 118, N-(2,6-dimethylphenyl)-2-[4-[[(3S,4R)-3-fluoro-4-piperidyl]carbamoyl]-2-methoxy-anilino]-5,6-dihydropyrimido[4,5-e]indolizine-7-carboxamide] | < 50
COc1cc(C(=O)NC(C)C)ccc1Nc1ncc2c(n1)-n1ccc(C(=O)Nc3c(C)cccc3C)c1CC2 [Example 120, N-(2,6-dimethylphenyl)-2-[4-(isopropylcarbamoyl)-2-methoxy-anilino]-5,6-dihydropyrimido[4,5-e]indolizine-7-carboxamide] | < 50
COc1cc(C(=O)N2CCOCC2)ccc1Nc1ncc2c(n1)-n1ccc(C(=O)Nc3c(C)cccc3C)c1CC2 [Example 122, N-(2,6-dimethylphenyl)-2-[2-methoxy-4-(morpholine-4-carbonyl)anilino]-5,6-dihydropyrimido[4,5-e]indolizine-7-carboxamide] | < 50
CCN1CCCN(C(=O)c2ccc(Nc3ncc4c(n3)-n3ccc(C(=O)Nc5c(C)cccc5C)c3CC4)c(OC)c2)CC1 [Example 124, N-(2,6-dimethylphenyl)-2-[4-(4-ethyl-1,4-diazepane-1-carbonyl)-2-methoxy-anilino]-5,6-dihydropyrimido[4,5-e]indolizine-7-carboxamide] | < 50
COc1cc(C(=O)NC2CC2)ccc1Nc1ncc2c(n1)-n1ccc(C(=O)Nc3c(C)cccc3C)c1CC2 [Example 126, 2-[4-(cyclopropylcarbamoyl)-2-methoxy-anilino]-N-(2,6-dimethylphenyl)-5,6-dihydropyrimido[4,5-e]indolizine-7-carboxamide] | < 50
COCCNC(=O)c1ccc(Nc2ncc3c(n2)-n2ccc(C(=O)Nc4c(C)cccc4C)c2CC3)c(OC)c1 [Example 127, N-(2,6-dimethylphenyl)-2-[2-methoxy-4-(2-methoxyethylcarbamoyl)anilino]-5,6-dihydropyrimido[4,5-e]indolizine-7-carboxamide] | < 50
COc1cc(C(=O)NCCN2CCCCC2)ccc1Nc1ncc2c(n1)-n1ccc(C(=O)Nc3c(C)cccc3C)c1CC2 [Example 128, N-(2,6-dimethylphenyl)-2-[2-methoxy-4-[2-(1-piperidyl)ethylcarbamoyl]anilino]-5,6-dihydropyrimido[4,5-e]indolizine-7-carboxamide] | 50 to 150
COc1cc(C(=O)N2CCC(C)(C#N)CC2)ccc1Nc1ncc2c(n1)-n1ccc(C(=O)Nc3c(C)cccc3C)c1CC2 [Example 129, 2-[4-(4-Cyano-4-methyl-piperidine-1-carbonyl)-2-methoxy-anilino]-N-(2,6-dimethylphenyl)-5,6-dihydropyrimido[4,5-e]indolizine-7-carboxamide] | < 50
COc1cc(N2CCN(C(=O)C3(C)CNC3)CC2)ccc1Nc1ncc2c(n1)-n1ccc(C(=O)Nc3c(C)cccc3C)c1CC2 [Example 130, N-(2,6-dimethylphenyl)-2-[2-methoxy-4-[4-(3-methylazetidine-3-carbonyl)piperazin-1-yl]anilino]-5,6-dihydropyrimido[4,5-e]indolizine-7-carboxamide] | < 50
COCCn1nc(C)c(NC(=O)c2ccn3c2CCc2cnc(Nc4ccc(N5CCN(C(C)=O)CC5)cc4OC)nc2-3)c1C [Example 131, 2-[4-(4-Acetylpiperazin-1-yl)-2-methoxy-anilino]-N-[1-(2-methoxyethyl)-3,5-dimethyl-pyrazol-4-yl]-5,6-dihydropyrimido[4,5-e]indolizine-7-carboxamide] | 50 to 150
COCCn1nc(C)c(NC(=O)c2ccn3c2CCc2cnc(Nc4ccc(N5CCN(C(=O)C6CC(F)C6)CC5)cc4OC)nc2-3)c1C (stereo not shown) [Example 132, 2-[4-[4-(3-Fluorocyclobutanecarbonyl)piperazin-1-yl]-2-methoxy-anilino]-N-[1-(2-methoxyethyl)-3,5-dimethyl-pyrazol-4-yl]-5,6-dihydropyrimido[4,5-e]indolizine-7-carboxamide] | 50 to 150
COc1cc(N2CCN(C)CC2)ccc1Nc1ncc2c(n1)-n1ccc(C(=O)Nc3c(C)cccc3C#N)c1CC2 [Example 133, N-(2-cyano-6-methyl-phenyl)-2-[2-methoxy-4-(4-methylpiperazin-1-yl)anilino]-5,6-dihydropyrimido[4,5-e]indolizine-7-carboxamide] | < 50

From USRE50082E1, “(5,6-dihydro)pyrimido[4,5-e]indolizines” (NETHERLANDS TRANSLATIONAL RESEARCH CENTER B.V., priority 2014, dated 2024)
